Assay results from patent publication US10633407B2, “14-membered ketolides and methods of their preparation and use” (President and Fellows of Harvard College, priority 2014, dated 2020).
In brackets after ≈: the same amount, converted by molar mass.

Legend:
Type in all cases: cell-based
[1] = tested on: E. faecalis ATCC 29212; assay: CLSI broth dilution MIC determination; details: Enterococcus faecalis, ATCC29212, E. faecalis ATCC 29212 (MP-24); read-out: MIC
[2] = tested on: A. baumannii ATCC 19606; assay: CLSI broth dilution MIC determination; details: Acinetobacter baumannii, ATCC19606; A. baumannii ATCC 19606 (MP-15); read-out: MIC
[3] = tested on: P. aeruginosa MP-7 PAO1; assay: CLSI broth dilution MIC determination; details: Pseudomonas aeruginosa, read-out: MIC
[4] = tested on: P. aeruginosa MP-8 PAO1:mex (mex-oprM-deletion); assay: CLSI broth dilution MIC determination; details: Pseudomonas aeruginosa, PAO1
[5] = tested on: K. pneumoniae MP-548 clinical; assay: CLSI broth dilution MIC determination; details: Klebsiella pneumoniae, MP548CLINICAL, read-out: MIC
[6] = tested on: A. baumannii MP-577 Clinical-AZT low; assay: CLSI broth dilution MIC determination; details: Acinetobacter baumannii, read-out: MIC
[7] = tested on: K. pneumoniae MP-546 Clinical-MDR; assay: CLSI broth dilution MIC determination; details: Klebsiella pneumoniae, read-out: MIC
[8] = tested on: P. aeruginosa ATCC 27853; assay: CLSI broth dilution MIC determination; details: Pseudomonas aeruginosa, ATCC27853; P. aeruginosa ATCC 27853 (MP-3); read-out: MIC
[9] = tested on: strains of B. subtilis, E. coli, S. aureus, S. pneumoniae, and H. influenzae, including several multidrug-resistant strains; assay: CLSI broth dilution MIC determination, whole panel of strains; details: from MIC data, Tables B1-B13
Source text: MIC data was collected for the novel macrolides that this platform has produced against over 21 unique strains of B. subtilis, E. coli, S. aureus, S. pneumoniae, and H. influenzae, including several multidrug-resistant strains, with a special focus on macrolide resistant mechanisms (vide supra). Azithromycin (Azithro) and Solithromycin (Solithro) were included as a control macrolides in many cases. CLSI standard procedures for broth dilution MIC determination were used. […] These genotypes can be constitutive or inducible.

[10] = tested on: E. faecalis Vancomycin-resistant; assay: CLSI broth dilution MIC determination; details: Enterococcus faecalis, E. faecalis Vancomycin-resistant (UNT-039); read-out: MIC
[11] = tested on: S. pyogenes Macrolide-resistant; assay: CLSI broth dilution MIC determination; details: Streptococcus pyogenes, S. pyogenes Macrolide-resistant (MP-625 UNT-014); read-out: MIC
[12] = tested on: K. pneumoniae ATCC 10031; assay: CLSI broth dilution MIC determination; details: Klebsiella pneumoniae, ATCC10031, K. pneumoniae ATCC 10031 (MP-14); read-out: MIC
[13] = tested on: S. pyogenes ATCC 19615; assay: CLSI broth dilution MIC determination; details: Streptococcus pyogenes, ATCC19615, S. pyogenes ATCC 19615 (MP-19); read-out: MIC
[14] = tested on: A. baumannii MP-576 Clinical-MDR; assay: CLSI broth dilution MIC determination; details: Acinetobacter baumannii, read-out: MIC
[15] = tested on: S. pneumoniae mef A genotype (first strain so labelled); assay: CLSI broth dilution MIC determination; details: Streptococcus pneumoniae, first strain (MP-626 UNT-038)
In short: (§1)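 MICs measured following CLSI broth dilution methodology. The strains tested include macrolide-resistant and multidrug-resistant isolates whose resistance genotypes can be constitutive or inducible.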

[16] = tested on: S. aureus USA600, GISA; assay: CLSI broth dilution MIC determination; details: Staphylococcus aureus; S. aureus USA600, GISA (MP-619 UNT-120); read-out: MIC
In short: as §1

[17] = tested on: S. aureus MRSA: USA300; assay: CLSI broth dilution MIC determination; details: Staphylococcus aureus; S. aureus MRSA: USA300 (MP-549, msr(a)); read-out: MIC
In short: as §1

[18] = tested on: E. coli MP-541 clinical; assay: CLSI broth dilution MIC determination; details: Escherichia coli, MP541CLINICAL, read-out: MIC
In short: as §1

[19] = tested on: S. aureus (MRSA) MP-513 ST-228 cErm (Clinical-cErm); assay: CLSI broth dilution MIC determination; details: Staphylococcus aureus, read-out: MIC
In short: as §1

[20] = tested on: E. coli MP-9 ATCC25922:tolC; assay: CLSI broth dilution MIC determination; details: Escherichia coli, ATCC25922
In short: as §1

[21] = tested on: S. pneumoniae ATCC 49619; assay: CLSI broth dilution MIC determination; details: Streptococcus pneumoniae, ATCC49619, S. pneumoniae ATCC 49619 (MP-21); read-out: MIC
In short: as §1

[22] = tested on: E. coli ATCC 25922; assay: CLSI broth dilution MIC determination; details: Escherichia coli, ATCC25922, E. coli ATCC 25922 (MP-4); read-out: MIC
In short: as §1

[23] = tested on: S. pneumoniae mef A genotype (second strain so labelled); assay: CLSI broth dilution MIC determination; details: Streptococcus pneumoniae, second strain (MP-627 UNT-039), read-out: MIC
In short: as §1

[24] = tested on: S. aureus MP-17 ATCCBAA-977 (BAA 977 iErm); assay: CLSI broth dilution MIC determination; details: Staphylococcus aureus; S. aureus MP-17, ATCCBAA-977, iErm; read-out: MIC
In short: as §1

[25] = tested on: E. coli MP-532 clinical-cErmB; assay: CLSI broth dilution MIC determination; details: Escherichia coli
In short: as §1

[26] = tested on: S. aureus ATCC 29213; assay: CLSI broth dilution MIC determination; details: Staphylococcus aureus, ATCC29213; S. aureus ATCC 29213 (MP-12); read-out: MIC
In short: as §1

[27] = tested on: S. aureus erm A genotype; assay: CLSI broth dilution MIC determination; details: Staphylococcus aureus; S. aureus erm A genotype (MP-620 UNT-146); read-out: MIC
In short: as §1

[28] = tested on: S. aureus MRSA: USA100; assay: CLSI broth dilution MIC determination; details: Staphylococcus aureus; S. aureus MRSA: USA100 (MP-618 UNT-096); read-out: MIC
In short: as §1

CC[C@H]1OC(=O)[C@@](C)(F)C(=O)[C@H](C)[C@@H](O[C@@H]2OC(C)CC(N(C)C)C2O)[C@](C)(OC)C[C@@H](C)C(=O)[C@H](C)[C@H]2N(CC#CCn3cc(-c4cccc(N)n4)nn3)C(=O)O[C@]12C (stereo partly shown) [FSM-100573]
MIC [1]: < 0.03 mg/L
MIC [2]: 2 mg/L (≈ 2.38 µM)
MIC [3]: 32 mg/L (≈ 38 µM)
MIC [4]: 4 mg/L (≈ 4.75 µM)
MIC [5]: 32 mg/L (≈ 38 µM)
MIC [6]: 16 mg/L (≈ 19 µM)
MIC [7]: 64 mg/L (≈ 76 µM)
MIC [8]: 16 mg/L (≈ 19 µM)
potency compared with solithromycin [9]: even more potent
MIC [10]: 1 mg/L (≈ 1.19 µM)
MIC [11]: < 0.03 mg/L
MIC [12]: 2 mg/L (≈ 2.38 µM)
MIC [13]: < 0.03 mg/L
MIC [14]: 64 mg/L (≈ 76 µM)
MIC [15]: < 0.03 mg/L
MIC [16]: 16 mg/L (≈ 19 µM)
MIC [17]: 0.06 mg/L (≈ 0.0713 µM)
MIC [18]: 16 mg/L (≈ 19 µM)
MIC [19]: 16 mg/L (≈ 19 µM)
MIC [20]: 2 mg/L (≈ 2.38 µM)
MIC [21]: < 0.03 mg/L
MIC [22]: 8 mg/L (≈ 9.5 µM)
MIC [23]: < 0.03 mg/L
MIC [24]: 0.06 mg/L (≈ 0.0713 µM)
MIC [25]: 64 mg/L (≈ 76 µM)
MIC [26]: 0.06 mg/L (≈ 0.0713 µM)
MIC [27]: 16 mg/L (≈ 19 µM)
MIC [28]: 16 mg/L (≈ 19 µM)
